We go through two compounds from publication PMC11148080, “Ru(II)-based complexes containing 2-thiouracil derivatives suppress liver cancer stem cells by targeting NF-κB and Akt/mTOR signaling” (Cell Death Discovery, 2024).

One data set has as its system HepG2 tumorspheres. Put plainly: HepG2 tumorspheres. The data set is classed as cell-based, human. Conditions: for HepG2 tumorsphere growth: 3D tumorspheres; for cell death in HepG2 tumorspheres (AO/PI): 48 h, 10 μM complex 1, 5 μM complex 2. The procedure:
HepG2 cells were seeded at a low cell density (1000 cells/well in 2 mL) in 24-well low-adhesion plates (Corning, USA) using serum-free DMEM-F12 supplemented with 20 ng/mL EGF (PeproTech, USA), 20 ng/mL bFGF (PeproTech, USA), and B27 supplement (Invitrogen, Carlsbad, CA, USA). After 5 days of incubation (to allow spheroid formation), the cells were treated with 20, 10, 5, 2.5 or 1.25 µM of each complex. The cells were photographed after 0, 24, and 48 h of treatment using an optical microscope (Leica, DMI8). In a new set of experiments, cells were treated with 10 µM complex 1 or 5 µM complex 2 for 48 h, stained with acridine orange (1 μg/mL) plus PI (1 μg/mL) and analyzed by a Leica TCS SP8 confocal microscope (Leica Microsystems, Wetzlar, HE, Germany).

Data set [1] deals with HepG2 cells. Description: Trypan blue exclusion assay. The data set is classed as cell-based, human. Conditions: HepG2, 72 h. The procedure:
The number of viable cells (unstained cells) and nonviable cells (trypan blue-stained cells) was counted by the trypan blue exclusion test. Briefly, 90 μL of cell suspension was selected, and 10 μL of trypan blue (0.4%) was added. A hemocytometer was used to fill the aliquot of the homogenized cell suspension, and the cells were counted under a light microscope.

In data set [2] the test system is HepG2 cells. Put plainly: May-Grunwald-Giemsa staining morphology. The class given is cell-based, human. The note with it: 24, 48, 72 h. The procedure:
Cells were grown on coverslips and stained with May-Grunwald-Giemsa. Subsequently, we employed light microscopy to examine and analyze morphological changes.

Data set [3] deals with HepG2 cells. Description: Colony-forming assay. The data set is classed as cell-based, human. Conditions: concentration- and time-dependent; 24, 48, 72 h treatment. The procedure: A total of 500 cells were plated in 6-well plates with 4 mL of complete medium and treated with the drugs for 24, 48, or 72 h to determine clonogenic potential. The medium was subsequently replaced with fresh drug-free medium, and the plates were cultivated for 14 days. After that, the cells were fixed in methanol and stained with 0.5% crystal violet. Using an optical microscope (Nikon, TS100), the number of colonies with >50 cells was counted.

Data set [4] is described as follows: Toxicity parameters in xenografted mice. The class given is in vivo, C.B-17 SCID mice. The note with it: 2 or 4 mg/kg i.p., 21 days; for changes in body weight or organs (liver, kidney, lung, heart): P > 0.05; for histopathological changes in the hearts: data not shown. The source says:
All animals were weighed at the start and end of the experiment to assess toxicological aspects. The animals were continuously examined for anomalies during the trial. The livers, kidneys, lungs, and hearts were removed and weighed before being preserved in 4% formaldehyde, dehydrated in a graded alcohol series, cleaned in xylene, and embedded in paraffin wax. The tissue was sliced into 5 μm thick slices, stained with hematoxylin and/or periodic acid-Schiff (liver and kidney), and histologically evaluated via optical microscopy.

For `Cc1cc(=O)nc([S][Ru+])[nH]1.F[P-](F)(F)(F)(F)F.c1ccc(-c2ccccn2)nc1.c1ccc(P(c2ccccc2)c2ccccc2)cc1.c1ccc(P(c2ccccc2)c2ccccc2)cc1` [Complex 2, trans-[Ru(6m2TU)(PPh3)2(bipy)]PF6], in the data set with HepG2 tumorspheres, the HepG2 tumorsphere growth result is “reduced” and the “cell death in HepG2 tumorspheres (AO/PI)” value is on record as “caused cell death”. The “reduction of cell viability” value in the data set with HepG2 cells [1] (1.5 µM) is on record as 39.4%. For the same compound, the “reduction of cell viability” value in the data set on HepG2 cells [1] (3 µM) was 61.4%. The “reduction of cell viability” value in the data set with HepG2 cells [1] (6 µM) came to 93.5%. Further, the “cell morphology (May-Grunwald-Giemsa)” value with HepG2 cells [2] is reported as “cell morphology changes that were associated with apoptosis”. Moreover, the “clonogenic viability of HepG2 cells” value in the data set on HepG2 cells [3] was “significantly decreased”. For the same compound, in data set [4], the “histopathological alterations of kidneys, livers, lungs” value was “minor and/or reversible”; the “changes in body weight or organs (liver, kidney, lung, heart)” value was “No significant changes”; the “histopathological changes in the hearts” value is recorded as “No significant changes”.

As to `F[P-](F)(F)(F)(F)F.O=c1cc[nH]c([S][Ru+])n1.c1ccc(-c2ccccn2)nc1.c1ccc(P(c2ccccc2)c2ccccc2)cc1.c1ccc(P(c2ccccc2)c2ccccc2)cc1` [Complex 1, trans-[Ru(2TU)(PPh3)2(bipy)]PF6], in the data set with HepG2 tumorspheres, the HepG2 tumorsphere growth result is “reduced” and the “cell death in HepG2 tumorspheres (AO/PI)” value is given as “caused cell death”. Also, the “reduction of cell viability” value in the data set on HepG2 cells [1] (2 µM) is 46.5%. Moreover, the “reduction of cell viability” value in the data set with HepG2 cells [1] (4 µM) is 72.2%. Moreover, the “reduction of cell viability” value in the data set with HepG2 cells [1] (8 µM) is recorded as 95.8%. Further, in the data set on HepG2 cells [2], the “cell morphology (May-Grunwald-Giemsa)” value is reported as “cell morphology changes that were associated with apoptosis”. Also, the “clonogenic viability of HepG2 cells” value with HepG2 cells [3] is listed as “significantly decreased”. Also, in data set [4], the “histopathological alterations of kidneys, livers, lungs” value is listed as “minor and/or reversible”; the “changes in body weight or organs (liver, kidney, lung, heart)” value is “No significant changes”; the “histopathological changes in the hearts” value is reported as “No significant changes”.
